Measured values from ChEMBL document CHEMBL5465560, “Selectivity Literature for EUbOPEN Chemogenomic Library” (2024).

How the values were obtained:
[1] = biological target: Casein kinase I isoform gamma-2 (Homo sapiens) (UniProt P78368); assay: Selectivity interaction (KinomeScan (DiscoverX)) EUB0000666a CSNK1G2; conditions: at 10 µM
[2] = biological target: Serine/threonine-protein kinase PLK2 (Homo sapiens, UniProt Q9NYY3); assay: Selectivity interaction (KinomeScan (DiscoverX)) EUB0000666a PLK2; conditions: at 10 µM
[3] = biological target: Tyrosine-protein kinase receptor UFO (Homo sapiens) (UniProt P30530); assay: Selectivity interaction (SelectScreen profiling (Invitrogen)) EUB0000607a AXL; conditions: at 2 µM
[4] = biological target: T1, Mitogen-activated protein kinase kinase kinase 13 (Homo sapiens) (UniProt O43283); assay: Selectivity interaction (KinomeScan (DiscoverX)) EUB0000607a MAP3K13; conditions: at 10 µM
T1 sequence (whole entry): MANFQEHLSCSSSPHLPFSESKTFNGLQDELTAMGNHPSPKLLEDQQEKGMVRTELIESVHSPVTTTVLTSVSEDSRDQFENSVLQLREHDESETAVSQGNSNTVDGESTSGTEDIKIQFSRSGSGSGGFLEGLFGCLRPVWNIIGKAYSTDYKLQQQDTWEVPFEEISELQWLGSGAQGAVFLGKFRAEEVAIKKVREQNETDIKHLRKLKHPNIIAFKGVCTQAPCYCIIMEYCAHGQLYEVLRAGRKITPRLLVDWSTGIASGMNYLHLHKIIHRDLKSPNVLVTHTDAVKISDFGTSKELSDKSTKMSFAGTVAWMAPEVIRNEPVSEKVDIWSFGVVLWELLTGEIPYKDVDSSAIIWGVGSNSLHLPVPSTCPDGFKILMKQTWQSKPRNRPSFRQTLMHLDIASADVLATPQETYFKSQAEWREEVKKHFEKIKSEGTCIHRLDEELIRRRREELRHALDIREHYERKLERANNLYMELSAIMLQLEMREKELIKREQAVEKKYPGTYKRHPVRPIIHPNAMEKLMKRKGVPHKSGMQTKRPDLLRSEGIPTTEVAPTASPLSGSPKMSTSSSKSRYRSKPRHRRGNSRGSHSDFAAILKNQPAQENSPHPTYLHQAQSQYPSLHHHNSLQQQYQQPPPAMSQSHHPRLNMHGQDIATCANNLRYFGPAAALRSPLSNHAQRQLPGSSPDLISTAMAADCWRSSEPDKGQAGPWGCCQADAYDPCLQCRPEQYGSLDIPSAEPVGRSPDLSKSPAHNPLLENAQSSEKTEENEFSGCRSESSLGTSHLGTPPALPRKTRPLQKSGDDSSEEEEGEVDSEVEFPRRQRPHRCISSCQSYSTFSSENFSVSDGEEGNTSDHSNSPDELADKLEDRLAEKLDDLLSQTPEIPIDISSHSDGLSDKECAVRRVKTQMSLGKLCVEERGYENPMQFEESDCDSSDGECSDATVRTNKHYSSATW

[5] = biological target: Rho-associated protein kinase 2 (Homo sapiens, UniProt O75116); assay: Selectivity interaction (KinomeScan (DiscoverX)) EUB0001049a ROCK2; conditions: at 1 µM
[6] = biological target: T2, Serine/threonine-protein kinase D2 (Homo sapiens) (UniProt Q9BZL6); assay: Selectivity interaction (Millipore kinase profiler) EUB0000124b PRKD2; conditions: at 10 µM
T2 sequence (whole entry): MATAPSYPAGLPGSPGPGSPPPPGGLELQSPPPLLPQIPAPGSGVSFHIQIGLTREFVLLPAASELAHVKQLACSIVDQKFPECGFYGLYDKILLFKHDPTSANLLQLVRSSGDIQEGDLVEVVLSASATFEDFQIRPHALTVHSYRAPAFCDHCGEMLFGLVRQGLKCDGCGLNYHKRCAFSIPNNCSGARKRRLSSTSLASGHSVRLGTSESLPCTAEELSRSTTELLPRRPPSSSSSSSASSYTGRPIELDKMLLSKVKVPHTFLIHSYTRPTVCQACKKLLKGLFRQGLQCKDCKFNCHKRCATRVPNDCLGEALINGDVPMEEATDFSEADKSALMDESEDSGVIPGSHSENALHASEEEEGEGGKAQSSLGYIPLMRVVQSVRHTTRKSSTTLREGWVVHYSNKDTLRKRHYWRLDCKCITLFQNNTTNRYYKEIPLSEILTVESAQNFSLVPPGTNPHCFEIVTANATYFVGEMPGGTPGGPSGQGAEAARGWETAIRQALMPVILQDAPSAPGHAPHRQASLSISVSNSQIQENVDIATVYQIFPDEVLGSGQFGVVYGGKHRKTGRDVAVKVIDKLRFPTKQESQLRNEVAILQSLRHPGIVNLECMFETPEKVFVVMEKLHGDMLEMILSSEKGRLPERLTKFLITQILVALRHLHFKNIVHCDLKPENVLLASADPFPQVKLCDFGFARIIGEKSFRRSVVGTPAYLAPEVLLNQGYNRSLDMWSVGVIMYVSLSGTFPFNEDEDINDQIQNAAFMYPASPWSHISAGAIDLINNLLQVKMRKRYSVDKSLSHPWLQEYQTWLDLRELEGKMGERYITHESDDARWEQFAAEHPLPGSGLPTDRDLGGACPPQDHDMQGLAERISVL

[7] = biological target: Mitogen-activated protein kinase 11 (Homo sapiens) (UniProt Q15759); assay: Selectivity interaction (Ambit KINOMEscan and KiNATiv profiling in Jurkat cells) EUB0000090b MAPK11; assay type: cell-based; conditions: at 1 µM
[8] = biological target: Serine/threonine-protein kinase 33 (Homo sapiens) (UniProt Q9BYT3); assay: Selectivity interaction (Ambit KINOMEscan and KiNATiv profiling in Jurkat cells) EUB0000090b STK33; assay type: cell-based; conditions: at 1 µM
Chain of Serine/threonine-protein kinase 33 (Homo sapiens) (Q9BYT3 whole entry, looked up): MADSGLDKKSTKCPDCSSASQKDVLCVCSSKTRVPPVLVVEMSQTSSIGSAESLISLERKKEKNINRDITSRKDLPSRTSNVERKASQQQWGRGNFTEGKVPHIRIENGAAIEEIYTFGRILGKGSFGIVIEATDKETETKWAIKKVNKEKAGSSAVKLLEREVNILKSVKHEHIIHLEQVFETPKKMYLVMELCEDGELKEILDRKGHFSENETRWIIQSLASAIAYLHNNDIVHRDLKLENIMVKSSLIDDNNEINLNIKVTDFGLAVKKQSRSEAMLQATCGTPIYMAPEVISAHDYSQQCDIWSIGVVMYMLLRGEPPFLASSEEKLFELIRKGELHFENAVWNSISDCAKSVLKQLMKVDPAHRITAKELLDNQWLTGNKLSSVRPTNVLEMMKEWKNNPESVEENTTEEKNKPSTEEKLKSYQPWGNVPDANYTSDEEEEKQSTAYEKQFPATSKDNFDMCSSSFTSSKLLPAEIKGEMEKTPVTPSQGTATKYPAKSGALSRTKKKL

[9] = test system: Tyrosine-protein kinase ABL1 (Homo sapiens), P00519 [F317L]; assay: Selectivity interaction (KinomeScan (DiscoverX)) EUB0000045b ABL1; conditions: at 10 µM
[10] = test system: Hepatocyte growth factor receptor (Homo sapiens), P08581 [M1250T]; assay: (§1) Selectivity interaction (KinomeScan (DiscoverX)) EUB0000045b MET
Chain of Hepatocyte growth factor receptor (Homo sapiens), P08581 [M1250T] (P08581 whole entry M1250T): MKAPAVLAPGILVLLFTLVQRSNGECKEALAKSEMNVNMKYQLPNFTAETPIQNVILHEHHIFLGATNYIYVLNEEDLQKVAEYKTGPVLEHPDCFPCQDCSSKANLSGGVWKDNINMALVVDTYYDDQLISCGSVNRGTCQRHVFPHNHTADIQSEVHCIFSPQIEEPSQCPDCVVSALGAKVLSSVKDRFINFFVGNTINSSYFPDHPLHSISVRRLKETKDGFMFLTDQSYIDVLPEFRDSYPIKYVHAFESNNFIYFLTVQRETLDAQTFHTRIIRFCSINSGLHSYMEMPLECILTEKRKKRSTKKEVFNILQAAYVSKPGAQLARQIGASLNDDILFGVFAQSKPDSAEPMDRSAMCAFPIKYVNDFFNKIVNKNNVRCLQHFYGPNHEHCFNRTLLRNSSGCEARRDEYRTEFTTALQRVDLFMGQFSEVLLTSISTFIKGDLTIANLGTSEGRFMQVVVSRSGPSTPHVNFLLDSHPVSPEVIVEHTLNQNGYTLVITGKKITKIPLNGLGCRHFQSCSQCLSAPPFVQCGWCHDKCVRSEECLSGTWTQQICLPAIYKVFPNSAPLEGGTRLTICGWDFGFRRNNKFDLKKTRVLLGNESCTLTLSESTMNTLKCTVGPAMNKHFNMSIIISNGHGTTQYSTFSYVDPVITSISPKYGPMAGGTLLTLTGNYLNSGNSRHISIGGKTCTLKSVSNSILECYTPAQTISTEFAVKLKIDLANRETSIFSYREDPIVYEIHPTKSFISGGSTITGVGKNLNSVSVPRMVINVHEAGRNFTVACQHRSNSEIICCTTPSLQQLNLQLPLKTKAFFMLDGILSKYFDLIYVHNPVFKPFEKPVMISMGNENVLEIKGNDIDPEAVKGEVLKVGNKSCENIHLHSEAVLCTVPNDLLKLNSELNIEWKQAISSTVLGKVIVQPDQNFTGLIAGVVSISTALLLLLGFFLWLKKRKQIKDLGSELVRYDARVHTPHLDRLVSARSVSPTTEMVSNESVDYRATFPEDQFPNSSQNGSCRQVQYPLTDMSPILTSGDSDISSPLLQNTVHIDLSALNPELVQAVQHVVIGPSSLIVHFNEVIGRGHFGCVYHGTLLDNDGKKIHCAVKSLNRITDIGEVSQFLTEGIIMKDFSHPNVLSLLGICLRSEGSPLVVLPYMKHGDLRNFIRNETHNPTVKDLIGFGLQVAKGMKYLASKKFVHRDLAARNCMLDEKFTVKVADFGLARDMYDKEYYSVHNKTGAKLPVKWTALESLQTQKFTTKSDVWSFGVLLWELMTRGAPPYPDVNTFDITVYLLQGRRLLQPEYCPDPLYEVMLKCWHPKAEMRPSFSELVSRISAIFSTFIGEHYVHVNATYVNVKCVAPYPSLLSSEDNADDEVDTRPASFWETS

[11] = test system: Hepatocyte growth factor receptor (Homo sapiens), P08581 [Y1235D]; assay: as §1
Chain of Hepatocyte growth factor receptor (Homo sapiens), P08581 [Y1235D] (P08581 whole entry Y1235D): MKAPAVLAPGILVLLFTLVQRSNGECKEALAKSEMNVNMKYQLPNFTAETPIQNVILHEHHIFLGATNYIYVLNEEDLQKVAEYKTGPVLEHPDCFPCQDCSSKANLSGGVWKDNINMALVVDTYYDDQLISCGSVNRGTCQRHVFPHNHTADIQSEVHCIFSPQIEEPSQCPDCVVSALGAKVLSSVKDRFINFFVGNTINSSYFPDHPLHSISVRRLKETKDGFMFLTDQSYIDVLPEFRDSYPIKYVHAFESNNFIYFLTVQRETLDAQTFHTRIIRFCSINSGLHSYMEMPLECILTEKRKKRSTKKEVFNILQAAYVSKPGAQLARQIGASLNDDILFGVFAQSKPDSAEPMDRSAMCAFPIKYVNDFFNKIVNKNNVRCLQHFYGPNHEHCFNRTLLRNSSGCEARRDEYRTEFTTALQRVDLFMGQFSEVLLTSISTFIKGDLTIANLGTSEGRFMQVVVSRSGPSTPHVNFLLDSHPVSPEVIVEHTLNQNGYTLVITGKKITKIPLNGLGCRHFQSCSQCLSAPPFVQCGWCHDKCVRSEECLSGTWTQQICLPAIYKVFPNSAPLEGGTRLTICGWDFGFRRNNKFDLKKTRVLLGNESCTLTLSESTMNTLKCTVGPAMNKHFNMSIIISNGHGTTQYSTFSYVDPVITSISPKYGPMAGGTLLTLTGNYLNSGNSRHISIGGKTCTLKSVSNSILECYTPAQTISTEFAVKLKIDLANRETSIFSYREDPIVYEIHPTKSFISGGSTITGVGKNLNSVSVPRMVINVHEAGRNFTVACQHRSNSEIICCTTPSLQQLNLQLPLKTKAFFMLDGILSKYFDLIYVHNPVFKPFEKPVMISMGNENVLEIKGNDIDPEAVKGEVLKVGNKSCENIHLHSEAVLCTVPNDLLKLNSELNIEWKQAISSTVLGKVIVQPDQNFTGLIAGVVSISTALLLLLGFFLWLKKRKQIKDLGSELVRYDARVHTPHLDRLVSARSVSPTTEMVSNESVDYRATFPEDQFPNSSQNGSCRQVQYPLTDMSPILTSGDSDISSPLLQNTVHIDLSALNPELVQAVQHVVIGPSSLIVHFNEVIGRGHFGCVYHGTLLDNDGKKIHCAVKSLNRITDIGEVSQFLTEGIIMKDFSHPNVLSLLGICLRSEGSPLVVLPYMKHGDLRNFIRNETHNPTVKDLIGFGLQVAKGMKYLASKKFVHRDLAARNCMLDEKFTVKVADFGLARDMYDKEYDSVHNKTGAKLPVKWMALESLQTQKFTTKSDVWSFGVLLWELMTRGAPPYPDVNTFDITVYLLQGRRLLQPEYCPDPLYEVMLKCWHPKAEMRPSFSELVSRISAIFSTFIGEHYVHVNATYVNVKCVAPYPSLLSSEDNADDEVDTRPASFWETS

[12] = biological target: Hepatocyte growth factor receptor (Homo sapiens, UniProt P08581); assay: as §1
Chain of Hepatocyte growth factor receptor (P08581 whole entry): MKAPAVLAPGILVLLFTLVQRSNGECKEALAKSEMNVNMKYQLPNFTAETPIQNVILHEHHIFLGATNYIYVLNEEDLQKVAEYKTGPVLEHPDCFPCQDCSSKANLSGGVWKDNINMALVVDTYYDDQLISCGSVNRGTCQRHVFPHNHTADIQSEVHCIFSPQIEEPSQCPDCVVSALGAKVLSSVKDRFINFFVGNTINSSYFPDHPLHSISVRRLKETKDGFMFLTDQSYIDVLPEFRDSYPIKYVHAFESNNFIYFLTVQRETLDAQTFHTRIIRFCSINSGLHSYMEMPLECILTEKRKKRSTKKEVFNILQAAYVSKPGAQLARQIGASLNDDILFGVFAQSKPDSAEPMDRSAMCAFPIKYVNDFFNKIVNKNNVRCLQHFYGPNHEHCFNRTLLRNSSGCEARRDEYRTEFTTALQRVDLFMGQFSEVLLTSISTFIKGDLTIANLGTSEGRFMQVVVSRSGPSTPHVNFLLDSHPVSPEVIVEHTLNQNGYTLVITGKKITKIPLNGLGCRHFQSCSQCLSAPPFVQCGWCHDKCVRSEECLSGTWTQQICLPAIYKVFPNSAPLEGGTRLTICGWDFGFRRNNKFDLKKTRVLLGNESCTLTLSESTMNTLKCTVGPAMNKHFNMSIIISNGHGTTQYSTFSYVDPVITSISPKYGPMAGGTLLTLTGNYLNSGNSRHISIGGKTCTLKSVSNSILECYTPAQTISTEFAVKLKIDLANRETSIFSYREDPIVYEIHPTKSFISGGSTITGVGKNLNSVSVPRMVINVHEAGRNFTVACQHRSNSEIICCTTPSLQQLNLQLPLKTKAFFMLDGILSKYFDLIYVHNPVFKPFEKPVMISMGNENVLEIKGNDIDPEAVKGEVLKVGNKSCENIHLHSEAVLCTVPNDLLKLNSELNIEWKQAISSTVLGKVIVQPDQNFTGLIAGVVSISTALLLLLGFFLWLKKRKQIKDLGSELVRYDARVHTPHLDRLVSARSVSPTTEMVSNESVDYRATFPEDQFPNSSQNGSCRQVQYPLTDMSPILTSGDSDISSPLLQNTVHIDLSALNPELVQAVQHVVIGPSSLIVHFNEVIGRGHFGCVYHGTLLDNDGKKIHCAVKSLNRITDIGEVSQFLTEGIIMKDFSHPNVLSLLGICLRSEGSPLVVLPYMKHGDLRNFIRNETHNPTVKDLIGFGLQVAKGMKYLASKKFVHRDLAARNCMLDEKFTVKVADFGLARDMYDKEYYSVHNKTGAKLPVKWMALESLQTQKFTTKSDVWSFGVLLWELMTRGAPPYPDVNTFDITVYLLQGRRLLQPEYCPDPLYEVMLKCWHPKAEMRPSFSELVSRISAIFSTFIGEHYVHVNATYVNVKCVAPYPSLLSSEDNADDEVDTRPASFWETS

[13] = biological target: Casein kinase II subunit alpha' (Homo sapiens) (UniProt P19784); assay: Selectivity interaction (KinomeScan (DiscoverX)) EUB0001079a CSNK2A2; conditions: at 1 µM
[14] = biological target: Serine/threonine-protein kinase haspin (Homo sapiens, UniProt Q8TF76); assay: Selectivity interaction (Enzymatic assay) EUB0001550a GSG2

Chain of Casein kinase I isoform gamma-2 (Homo sapiens) (P78368 whole entry, looked up, canonical isoform): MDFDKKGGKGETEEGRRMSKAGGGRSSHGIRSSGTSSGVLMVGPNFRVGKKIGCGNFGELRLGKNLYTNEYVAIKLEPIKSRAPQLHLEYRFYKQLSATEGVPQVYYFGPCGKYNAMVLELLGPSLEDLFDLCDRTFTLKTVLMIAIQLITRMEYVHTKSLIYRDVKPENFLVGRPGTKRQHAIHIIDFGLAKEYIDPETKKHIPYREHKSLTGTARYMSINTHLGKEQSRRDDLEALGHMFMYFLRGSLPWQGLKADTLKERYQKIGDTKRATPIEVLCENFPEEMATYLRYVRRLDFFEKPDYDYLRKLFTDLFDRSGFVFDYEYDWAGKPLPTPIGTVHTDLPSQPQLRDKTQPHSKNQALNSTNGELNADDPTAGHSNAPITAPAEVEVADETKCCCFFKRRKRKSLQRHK

O=C(NOC[C@H](O)CO)c1ccc(F)c(F)c1Nc1ccc(I)cc1F
% of control [1]: 95% | % of control [2]: 100%

CNC(=O)Nc1ccc(-c2nc(N3CC4CCC(C3)O4)c3cnn(C4CCC5(CC4)OCCO5)c3n2)cc1
% of inhibition [3]: 2% | % of control [4]: 82%

COc1cc(Nc2nc(C)cc(-c3cnn4nc(OC)ccc34)n2)cc(C(F)(F)F)c1
% of control [5]: 100%

CC(=O)Nc1cccc(-n2c(=O)n(C3CC3)c(=O)c3c(Nc4ccc(I)cc4F)n(C)c(=O)c(C)c32)c1
% of control [6]: 98%

CN(C)C/C=C/C(=O)Nc1ccc(C(=O)N2CCCC(Nc3ncc(Cl)c(-c4c[nH]c5ccccc45)n3)C2)cc1 (configuration not stated)
% of control [7]: 97% | % of control [8]: 90%

C=CC(=O)Nc1cc(-n2c(=O)ccc3cnc4ccc(-c5ccc(NS(C)(=O)=O)cc5)cc4c32)ccc1C
% of control [9]: 75% | % of control ([10]; at 1 µM): 80% | % of control ([10]; at 10 µM): 90% | % of control ([11]; at 1 µM): 95% | % of control ([11]; at 10 µM): 100% | % of control ([12]; at 1 µM): 100% | % of control ([12]; at 10 µM): 64%

Nc1cnc(N2CCc3cc(S(=O)(=O)Nc4c(F)cc(Cl)cc4F)cc(N4CCCC4=O)c32)nc1 [TP-020n]
% of control [13]: 98%

CN(C)CC#Cc1ccc2[nH]c3c(c2c1)-c1nc(N)ncc1CCC3
IC50 [14]: 1400 nM
